Bridge positions count the residues as written; N and C are the ends. Square brackets hold non-standard residues; d marks the D form. Peptide text beside a SMILES is read from it. S5 = C=CCCC[C@](C)(N)C(=O)O
System: SARS-CoV-2 pseudovirus
Details: 48 h, 735 μM

Row | SMILES | Inhibition of the pseudovirus [%]
1 | CC(=O)N[C@@H](Cc1c[nH]cn1)C(=O)N[C@@H](CCC(=O)O)C(=O)N[C@@]1(C)CCC/C=C/CCC[C@@](C)(C(=O)N[C@@H](Cc2ccc(O)cc2)C(=O)N[C@@H](CCC(N)=O)C(N)=O)NC(=O)[C@H](CC(C)C)NC(=O)[C@H](CC(=O)O)NC(=O)[C@H](CCC(=O)O)NC1=O [peptide 11, Ac-NH-His-Glu-[S5-Glu-Asp-Leu-S5]-Tyr-Gln-CO-NH2] (Ac-HE[S5]EDL[S5]YQ-NH2; staple (E) 3-7) | 68
2 | CC(=O)N[C@@H](Cc1c[nH]cn1)C(=O)N[C@@H](CCC(=O)O)C(=O)N[C@H]1CCCCNC(=O)C[C@@H](C(=O)N[C@@H](Cc2ccc(O)cc2)C(=O)N[C@@H](CCC(N)=O)C(N)=O)NC(=O)[C@H](CC(C)C)NC(=O)[C@H](CC(=O)O)NC(=O)[C@H](CCC(=O)O)NC1=O [peptide 4, Ac-NH-His-Glu-[Lys-Glu-Asp-Leu-Asp]-Tyr-Gln-CO-NH2] (Ac-HEKEDLDYQ-NH2; lactam 3-7) | 48
